Calls of active or inactive are those of the source. The rule behind the calls is not given here. Where only a bound is given, the exact number is not on record here.

Results on 30 compounds are retold here after ChEMBL document CHEMBL4765316, “Discovery of novel resorcinol diphenyl ether-based PROTAC-like molecules as dual inhibitors and degraders of PD-L1” (Eur J Med Chem, 2020).

The target of assay [1] is Programmed cell death protein 1/Programmed cell death 1 ligand 1 (Homo sapiens, UniProt Q9NZQ7). Kind of assay: Inhibition of PD-1/PDL1 protein-protein interaction (unknown origin) by HTRF assay. The class given is protein-complex assay. (In general: Time-resolved FRET reads energy transfer from a long-lived donor to a nearby acceptor.)
Chain of Programmed cell death protein 1/Programmed cell death 1 ligand 1 (Q15116 whole entry): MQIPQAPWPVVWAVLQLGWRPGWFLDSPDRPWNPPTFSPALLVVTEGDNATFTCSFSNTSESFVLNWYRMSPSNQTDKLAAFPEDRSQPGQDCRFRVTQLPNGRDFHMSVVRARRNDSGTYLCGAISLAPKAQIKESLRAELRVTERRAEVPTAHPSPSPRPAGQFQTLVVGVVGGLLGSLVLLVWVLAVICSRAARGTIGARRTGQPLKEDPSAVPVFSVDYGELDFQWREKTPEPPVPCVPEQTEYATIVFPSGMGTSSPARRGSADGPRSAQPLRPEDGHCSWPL
Chain of Programmed cell death protein 1/Programmed cell death 1 ligand 1 (Q9NZQ7 whole entry): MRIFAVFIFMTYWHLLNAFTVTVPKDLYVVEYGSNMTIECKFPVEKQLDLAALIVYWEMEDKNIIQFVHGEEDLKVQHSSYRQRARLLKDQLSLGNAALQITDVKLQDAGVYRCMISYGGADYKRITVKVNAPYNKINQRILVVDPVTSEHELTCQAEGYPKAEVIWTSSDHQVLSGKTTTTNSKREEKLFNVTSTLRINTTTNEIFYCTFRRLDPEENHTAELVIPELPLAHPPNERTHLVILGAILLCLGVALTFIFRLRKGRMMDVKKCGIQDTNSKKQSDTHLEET
Assay [2] concerns A549. Nature of the assay: Antiproliferative activity against human A549 cells assessed as reduction in cell viability incubated for 48 hrs by CCK8 assay. The class given is functional, cell-based. As to conditions: A549, 48 h.
Assay [3] has as its system NCI-H1299. Kind of assay: Antiproliferative activity against human H1299 cells assessed as reduction in cell viability incubated for 48 hrs by CCK8 assay. The class given is functional, cell-based. The conditions noted are these: NCI-H1299, 48 h. For orientation: Formazan colour is commonly taken as a measure of viable cells.
Assay [4] has as its system B16-F10. Nature of the assay: Antiproliferative activity against mouse B16-F10 cells assessed as reduction in cell viability incubated for 48 hrs by CCK8 assay. The class given is functional, cell-based. The conditions noted are these: B16-F10, 48 h.
Assay [5] deals with MDA-MB-231. Nature of the assay: Antiproliferative activity against human MDA-MB-231 cells assessed as reduction in cell viability incubated for 48 hrs by CCK8 assay. As to conditions: MDA-MB-231, 48 h. The assay is classed as functional, cell-based.
The test system of assay [6] is Jurkat. Kind of assay: Antiproliferative activity against human jurkat cells assessed as reduction in cell viability incubated for 48 hrs by CCK8 assay. The assay is classed as functional, cell-based.
For assay [7], the species on record is Homo sapiens. Kind of assay: Inhibition of PD1/PDL1 protein-protein interaction in human PBMC-derived CD3-positive T cells co-cultured with human Hep3B cells expressing human PDL1/OS-8 assessed as increase in IFN-gamma secretion at 3.3 uM measured after 72 hrs by ELISA relative to control. The arrangement: scale not given: the % may be the effect or the level left.

The species named for assay [8] is Homo sapiens. Kind of assay: Inhibition of PD1/PDL1 protein-protein interaction in human PBMC-derived CD3-positive T cells co-cultured with human Hep3B cells expressing human PDL1/OS-8 assessed as increase in IFN-gamma secretion measured after 72 hrs by ELISA relative to control. As to conditions: dose 3.3-10 µM.
For assay [9], the target named is T1, Protein cereblon/Programmed cell death 1 ligand 1 (Homo sapiens) (UniProt Q9NZQ7+Q96SW2). Nature of the assay: Protac like activity at CRBN/PD-L1 in human MDA-MB-231 cells assessed as reduction in cell surface PD-L1 expression at 10 uM measured after 24 hrs by flow cytometry relative to control. The assay is classed as functional, cell-based. The arrangement: scale not given: the % may be the effect or the level left. (In general: A flow cytometer gives signals particle by particle.)
T1 sequence (Q96SW2 whole entry, looked up): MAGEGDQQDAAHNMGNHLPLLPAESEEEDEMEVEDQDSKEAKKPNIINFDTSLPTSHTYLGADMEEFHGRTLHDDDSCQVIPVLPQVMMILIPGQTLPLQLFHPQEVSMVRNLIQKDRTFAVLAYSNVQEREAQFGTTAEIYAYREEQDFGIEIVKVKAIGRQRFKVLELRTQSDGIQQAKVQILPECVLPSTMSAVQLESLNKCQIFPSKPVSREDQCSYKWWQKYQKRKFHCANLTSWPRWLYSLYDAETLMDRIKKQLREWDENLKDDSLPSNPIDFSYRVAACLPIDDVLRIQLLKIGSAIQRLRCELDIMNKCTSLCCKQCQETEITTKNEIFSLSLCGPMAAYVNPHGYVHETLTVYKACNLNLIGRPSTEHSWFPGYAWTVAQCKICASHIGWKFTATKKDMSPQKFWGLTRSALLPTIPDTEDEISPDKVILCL
T1 sequence (Q9NZQ7 whole entry, looked up): as the sequence (Q9NZQ7 whole entry) above

For assay [10], the target named is T1, Protein cereblon/Programmed cell death 1 ligand 1 (Homo sapiens). Nature of the assay: Protac like activity at CRBN/PD-L1 in human MDA-MB-231 cells assessed as reduction in cell surface PD-L1 expression at 1 uM measured after 24 hrs by Western blotting analysis relative to control. The class given is functional, cell-based. The arrangement: scale not given: the % may be the effect or the level left.

Assay [11] has the same target. Kind of assay: Protac like activity at CRBN/PD-L1 in human MDA-MB-231 cells assessed as reduction in cell surface PD-L1 expression at 10 uM measured after 24 hrs by Western blotting analysis relative to control. The assay is classed as functional, cell-based. Set-up: scale not given: the % may be the effect or the level left.
Assay [12] shares this target. Nature of the assay: Protac like activity at CRBN/PD-L1 in human MDA-MB-231 cells assessed as reduction in cell surface PD-L1 expression at 1 to 10 uM in presence of bafilomycin lysosomal measured after 24 hrs by Western blotting analysis relative to control. As to conditions: dose 1-10 µM. The class given is functional, cell-based.
Assay [13] has the same target. Nature of the assay: Protac like activity at CRBN/PD-L1 in human MDA-MB-231 cells assessed as reduction in cell surface PD-L1 expression at 1 to 10 uM in presence of MG132 proteasome inhibitor measured after 24 hrs by Western blotting analysis relative to control. The assay is classed as functional, cell-based. The conditions noted are these: dose 1-10 µM.

Consider `Cc1c(COc2cc(OCc3cccc(C#N)c3)c(CN3CCCCC3C(=O)NCCCCCCNc3cccc4c3C(=O)N(C3CCC(=O)NC3=O)C4=O)cc2Cl)cccc1-c1ccccc1` (configuration not stated), for which, in assay [1], the IC50 (as a rule, the concentration at which inhibition is half-maximal) was more than 200 nM.
Regarding `Cc1c(COc2cc(OCc3cccc(C#N)c3)c(CN3CCCCC3C(=O)NCCCNC(=O)CCC(=O)Nc3cccc4c3C(=O)N(C3CCC(=O)NC3=O)C4=O)cc2Cl)cccc1-c1ccccc1` (configuration not stated), the IC50 in [1] was more than 200 nM.
For `Cc1c(COc2cc(OCc3cccc(C#N)c3)c(CN3CCCCC3C(=O)N3CCN(C(=O)CCCC(=O)Nc4cccc5c4C(=O)N(C4CCC(=O)NC4=O)C5=O)CC3)cc2Cl)cccc1-c1ccc2c(c1)OCCO2` (configuration not stated), the IC50 in assay [1] is 39.2 nM; in assay [2], more than 10000 nM; in assay [3], more than 10000 nM; in assay [4], more than 10000 nM; in [5] it was more than 10000 nM; in assay [6], more than 10000 nM. Besides, the Activity in assay [7] was 215%; in assay [8] it was “Dose-dependent effect”; in [9] it was 14%; in assay [10], 21%; in assay [11] it was 35%. For the same compound, in assay [12], the result was inactive. In addition, the result in [13] was Active.
On to `Cc1c(COc2cc(OCc3cccc(C#N)c3)c(CN3CCCCC3C(=O)NCCCCNc3cccc4c3C(=O)N(C3CCC(=O)NC3=O)C4=O)cc2Cl)cccc1-c1ccccc1` (configuration not stated), for which the IC50 in assay [1] is 52.8 nM; in [2], 8200 nM; in assay [3] it was 10500 nM; in assay [4], more than 10000 nM; in assay [5] it was more than 10000 nM; in [6], more than 10000 nM.
Take `Nc1cccc2c1C(=O)N(C1CCC(=O)NC1=O)C2=O` (configuration not stated) [POMALIDOMIDE]: the 50% inhibitory concentration (IC50) in assay [1] was more than 10 nM.
On the same count and under the same terms, for `Cc1c(COc2cc(OCc3cccc(C#N)c3)c(CN3CCCCC3C(=O)O)cc2Cl)cccc1-c1ccc2c(c1)OCCO2` (configuration not stated) the value was 56.6 nM.
With `Cc1c(COc2cc(OCc3cccc(C#N)c3)c(CN3CCCCC3C(=O)N3CCN(C(=O)CCC(=O)Nc4cccc5c4C(=O)N(C4CCC(=O)NC4=O)C5=O)CC3)cc2Cl)cccc1-c1ccccc1` (configuration not stated), the half-maximal inhibitory concentration (IC50) in assay [1] is 44.5 nM; in [2] it was more than 10000 nM; in assay [3] it was 9700 nM; in assay [4], 11400 nM; in assay [5] it was more than 10000 nM; in assay [6] it was more than 10000 nM.
For the compound `Cc1c(COc2cc(OCc3cccc(C#N)c3)c(CN3CCCCC3C(=O)NCCNc3cccc4c3C(=O)N(C3CCC(=O)NC3=O)C4=O)cc2Cl)cccc1-c1ccc2c(c1)OCCO2` (configuration not stated), the IC50 in assay [1] came to 144 nM.
With `Cc1c(COc2cc(OCc3cccc(C#N)c3)c(CN3CCCCC3C(=O)N3CCN(C(=O)CCCC(=O)Nc4cccc5c4C(=O)N(C4CCC(=O)NC4=O)C5=O)CC3)cc2Cl)cccc1-c1ccccc1` (configuration not stated), the IC50 in [1] is 26.1 nM; in [2], more than 10000 nM; in assay [3], more than 10000 nM; in assay [4], 10800 nM; in [5] it was more than 10000 nM; in [6] it was more than 11700 nM.
`Cc1c(COc2cc(OCc3cccc(C#N)c3)c(CN3CCCCC3C(=O)NCCNC(=O)CCC(=O)Nc3cccc4c3C(=O)N(C3CCC(=O)NC3=O)C4=O)cc2Cl)cccc1-c1ccccc1` (configuration not stated): the IC50 in [1] was found to be 98.8 nM.
In assay [1], `Cc1c(COc2cc(OCc3cccc(C#N)c3)c(CN3CCCCC3C(=O)NCCNC(=O)CCCC(=O)Nc3ccc4c(c3)C(=O)N(C3CCC(=O)NC3=O)C4=O)cc2Cl)cccc1-c1ccccc1` (configuration not stated) had a concentration for half-maximal inhibition (IC50) of 102 nM.
The same measure, in the same setting: the value for `Cc1c(COc2cc(OCc3cccc(C#N)c3)c(CN3CCCCC3C(=O)NCCCCCNc3cccc4c3C(=O)N(C3CCC(=O)NC3=O)C4=O)cc2Cl)cccc1-c1ccccc1` (configuration not stated) was 171 nM.
On to `Cc1c(COc2cc(OCc3cccc(C#N)c3)c(CN3CCCCC3C(=O)N3CCN(C(=O)CCC(=O)Nc4cccc5c4C(=O)N(C4CCC(=O)NC4=O)C5=O)CC3)cc2Cl)cccc1-c1ccc2c(c1)OCCO2` (configuration not stated), for which the IC50 in [1] is 25.2 nM; in assay [2], 9200 nM; in [3] it was more than 10000 nM; in assay [4], 7300 nM; in [5], more than 10000 nM; in assay [6], more than 10000 nM.
Consider `Cc1c(COc2cc(OCc3cccc(C#N)c3)c(CN3CCCCC3C(=O)NCCNC(=O)COCC(=O)Nc3cccc4c3C(=O)N(C3CCC(=O)NC3=O)C4=O)cc2Cl)cccc1-c1ccccc1` (configuration not stated), for which the IC50 in assay [1] was more than 200 nM.
The same measure, in the same setting: the value for `Cc1c(COc2cc(OCc3cccc(C#N)c3)c(CN3CCCCC3C(=O)NCCCCNC(=O)CCCC(=O)Nc3cccc4c3C(=O)N(C3CCC(=O)NC3=O)C4=O)cc2Cl)cccc1-c1ccccc1` (configuration not stated) was 121 nM; that for `Cc1c(COc2cc(OCc3cccc(C#N)c3)c(CN3CCCCC3C(=O)NCCCNc3cccc4c3C(=O)N(C3CCC(=O)NC3=O)C4=O)cc2Cl)cccc1-c1ccccc1` (configuration not stated) was 97.3 nM.
The same measure, in the same setting: for `Cc1c(COc2cc(OCc3cccc(C#N)c3)c(CN3CCCCC3C(=O)NCCCCCCNc3cccc4c3C(=O)N(C3CCC(=O)NC3=O)C4=O)cc2Cl)cccc1-c1ccc2c(c1)OCCO2` (configuration not stated) the value was more than 200 nM.
In turn, `Cc1c(COc2cc(OCc3cccc(C#N)c3)c(CN3CCCCC3C(=O)NCCNC(=O)CCCC(=O)Nc3cccc4c3C(=O)N(C3CCC(=O)NC3=O)C4=O)cc2Cl)cccc1-c1ccccc1` (configuration not stated) returned an IC50 in assay [1] of 123 nM.
Still for that read-out and setting: the value for `Cc1c(COc2ccc(CN3CCCCC3C(=O)NCCCCNc3cccc4c3C(=O)N(C3CCC(=O)NC3=O)C4=O)cc2Br)cccc1-c1ccccc1` (configuration not stated) was 197 nM.
As to `Cc1c(COc2cc(OCc3cccc(C#N)c3)c(CN3CCCCC3C(=O)NCCCCNc3cccc4c3C(=O)N(C3CCC(=O)NC3=O)C4=O)cc2Cl)cccc1-c1ccc2c(c1)OCCO2` (configuration not stated), the half-inhibitory concentration (IC50) in assay [1] is 103 nM; in [2] it was more than 10000 nM; in assay [3], more than 10000 nM; in [4], more than 10000 nM; in assay [5] it was more than 10000 nM; in [6] it was more than 10000 nM.
In assay [1], `Cc1c(COc2ccc(CN3CCCCC3C(=O)N3CCN(C(=O)CCCC(=O)Nc4cccc5c4C(=O)N(C4CCC(=O)NC4=O)C5=O)CC3)cc2Br)cccc1-c1ccccc1` (configuration not stated) yielded an IC50 of more than 200 nM.
On the same count and under the same terms, the value for `Cc1c(COc2cc(OCc3cccc(C#N)c3)c(CN3CCCCC3C(=O)NCCNC(=O)COCC(=O)Nc3cccc4c3C(=O)N(C3CCC(=O)NC3=O)C4=O)cc2Cl)cccc1-c1ccc2c(c1)OCCO2` (configuration not stated) was more than 200 nM.
The same measure, in the same setting: the value for `Cc1c(COc2cc(OCc3cccc(C#N)c3)c(CN3CCCCC3C(=O)NCCNC(=O)CCCC(=O)Nc3ccc4c(c3)C(=O)N(C3CCC(=O)NC3=O)C4=O)cc2Cl)cccc1-c1ccc2c(c1)OCCO2` (configuration not stated) was more than 200 nM; that for `Cc1c(COc2cc(OCc3cccc(C#N)c3)c(CN3CCCCC3C(=O)NCCCCCNc3cccc4c3C(=O)N(C3CCC(=O)NC3=O)C4=O)cc2Cl)cccc1-c1ccc2c(c1)OCCO2` (configuration not stated) was 193 nM; that for `Cc1c(COc2cc(OCc3cccc(C#N)c3)c(CN3CCCCC3C(=O)NCCNC(=O)CCC(=O)Nc3cccc4c3C(=O)N(C3CCC(=O)NC3=O)C4=O)cc2Cl)cccc1-c1ccc2c(c1)OCCO2` (configuration not stated) was more than 200 nM.
On the same count and under the same terms, for `Cc1c(COc2cc(OCc3cccc(C#N)c3)c(CN3CCCCC3C(=O)NCCNC(=O)CCCC(=O)Nc3cccc4c3C(=O)N(C3CCC(=O)NC3=O)C4=O)cc2Cl)cccc1-c1ccc2c(c1)OCCO2` (configuration not stated) the value was more than 200 nM; for `Cc1c(COc2cc(OCc3cccc(C#N)c3)c(CN3CCCCC3C(=O)NCCCCCNC(=O)CCCC(=O)Nc3cccc4c3C(=O)N(C3CCC(=O)NC3=O)C4=O)cc2Cl)cccc1-c1ccccc1` (configuration not stated), more than 200 nM; for `Cc1c(COc2ccc(CN3CCCCC3C(=O)NCCNC(=O)CCCC(=O)Nc3cccc4c3C(=O)N(C3CCC(=O)NC3=O)C4=O)cc2Br)cccc1-c1ccccc1` (configuration not stated), more than 200 nM.
Consider `Cc1c(COc2cc(OCc3cccc(C#N)c3)c(CN3CCCCC3C(=O)NCCCNc3cccc4c3C(=O)N(C3CCC(=O)NC3=O)C4=O)cc2Cl)cccc1-c1ccc2c(c1)OCCO2` (configuration not stated), for which the IC50 in assay [1] was found to be 135 nM.
`Cc1c(COc2cc(OCc3cccc(C#N)c3)c(CN3CCCCC3C(=O)NCCNc3cccc4c3C(=O)N(C3CCC(=O)NC3=O)C4=O)cc2Cl)cccc1-c1ccccc1` (configuration not stated) registered an IC50 in assay [1] of 118 nM.
